Results taken from patent US9434994B2, “Methods for prediction of clinical outcome to epidermal growth factor receptor inhibitors by non-small cell lung cancer patients” (The Regents of the University of Colorado, a body corporate, priority 2004, dated 2016).
Read-outs that look alike come from different tables or passages of the source.

Test system: NSCLC patients
[1] = EGFR FISH+/EGFR mutation+ (17 patients)
[2] = FISH +, IHC +, EGFR Mut +, n 12
[3] = FISH +, IHC +, EGFR Mut −, n 20
[4] = FISH −, IHC +, EGFR Mut +, n 12
[5] = FISH −, IHC +, EGFR Mut −, n 39
[6] = FISH −, IHC −, EGFR Mut −, n 37
[7] = FISH+ or EGFR + (EGFR mutation), 46 pts
[8] = FISH+/EGFR+ (EGFR mutation), 17 pts
[9] = FISH−/EGFR− (EGFR mutation), 80 pts
[10] = triple positive: EGFR FISH, EGFR IHC, P-AKT
[11] = triple positive: EGFR FISH, IHC, mutation (12 patients)

Description: In order to make a more substantial statistical analysis and power, the inventors have analyzed the combined data set, which includes altogether 204 patients with NSCLC.
The multivariable analysis is based on an initial univariable analysis including clinical- and biological markers by using backward stepwise regression methods. All univariately significant covariates were included in the stepwise selection.

Compound: COc1cc2ncnc(Nc3ccc(F)c(Cl)c3)c2cc1OCCCN1CCOCC1 [gefitinib]
- HR, survival, multivariable (Current/Former smokers): 2.68
- DC (disease control) (EGFR FISH+): 65%
- MS (95% CI) (EGFR FISH+): 18 (14-21) months
- OR (overall response) (EGFR FISH+): 33%
- TTP, median (95% CI) (EGFR FISH+): 9 (5-10) months
- 1-yr survival (EGFR FISH+ or IHC+): 44% (33-55)
- DCR (EGFR FISH+ or IHC+): 43%
- MS (EGFR FISH+ or IHC+): 11 (7-15) mo
- RSP (EGFR FISH+ or IHC+): 10%
- TTP (EGFR FISH+ or IHC+): 3 (2-5) mo
- Disease Control Rate [1]: 69%
- response rate [1]: 69%
- time to progression [1]: 16 months
- Median Survival (EGFR FISH+/EGFR mutation+, not yet achieved): exceeding 20 months
- DCR (EGFR FISH+/IHC+): 76%
- MS (EGFR FISH+/IHC+): 21 (15-21) mo
- RSP (EGFR FISH+/IHC+): 41%
- TTP (EGFR FISH+/IHC+): 9 (6-16) mo
- DC (disease control) (EGFR FISH-): 30%
- MS (95% CI) (EGFR FISH-): 8 (6-11) months
- OR (overall response) (EGFR FISH-): 6%
- TTP, median (95% CI) (EGFR FISH-): 3 (2-3) months
- Disease Control Rate (EGFR FISH-/EGFR mutation-): 29%
- response rate (EGFR FISH-/EGFR mutation-): 3%
- time to progression (EGFR FISH-/EGFR mutation-): 3 month
- DCR (EGFR FISH-/IHC-): 17%
- MS (EGFR FISH-/IHC-): 6 (4-8) mo
- RSP (EGFR FISH-/IHC-): 2%
- TTP (EGFR FISH-/IHC-): 2 (2-3) mo
- DC (disease control) (EGFR IHC+): 56%
- MS (95% CI) (EGFR IHC+): 14 (11-21) months
- OR (overall response) (EGFR IHC+): 22%
- TTP, median (95% CI) (EGFR IHC+): 5 (3-7) months
- DC (disease control) (EGFR IHC-): 27%
- HR, survival, multivariable (EGFR IHC-): 1.70
- MS (95% CI) (EGFR IHC-): 7 (5-10) months
- OR (overall response) (EGFR IHC-): 5%
- TTP, median (95% CI) (EGFR IHC-): 3 (2-3) months
- DC (disease control) (EGFR Mutation+): 52%
- MS (95% CI) (EGFR Mutation+): 13 (6-21)
- OR (overall response) (EGFR Mutation+): 39%
- TTP, median (95% CI) (EGFR Mutation+): 3 (2-11)
- DC (disease control) (EGFR Mutation-): 37%
- MS (95% CI) (EGFR Mutation-): 11 (7-13)
- OR (overall response) (EGFR Mutation-): 7%
- TTP, median (95% CI) (EGFR Mutation-): 3 (2-4)
- 1-yr survival (EGFR mutation+ or IHC+): 50% (39-61)
- DCR (EGFR mutation+ or IHC+): 47%
- MS (EGFR mutation+ or IHC+): 12 (8-15) mo
- RSP (EGFR mutation+ or IHC+): 12%
- TTP (EGFR mutation+ or IHC+): 3 (2-5) mo
- 1-yr survival (EGFR mutation+/IHC+): 63% (45-81)
- MS (EGFR mutation+/IHC+): 21 (10-21) mo
- RSP (EGFR mutation+/IHC+): 50%
- TTP (EGFR mutation+/IHC+): 10 (2-16) mo
- MS (EGFR mutation-/IHC-): 7 (5-12) mo
- RSP (EGFR mutation-/IHC-): 2%
- TTP (EGFR mutation-/IHC-): 2 (2-3) mo
- 1-yr surv [2]: 100%
- DCR [2]: 78%
- OR (response rate) [2]: 78%
- TTP [2]: 20 (11-20) months
- 1-yr surv [3]: 64% (42-86)
- OR (response rate) [3]: 22%
- OS (median survival) [3]: 15 (6-16) months
- TTP [3]: 5 (3-12) months
- 1-yr surv (FISH +, IHC +, P-AKT +, N 34): 84% (70-97)
- DCR (FISH +, IHC +, P-AKT +, N 34): 80%
- OR (response rate) (FISH +, IHC +, P-AKT +, N 34): 43%
- TTP (FISH +, IHC +, P-AKT +, N 34): 12 (6-19) months
- 1-yr surv (FISH +, IHC +, P-AKT −, N 4): 75% (33-100)
- OR (response rate) (FISH +, IHC +, P-AKT −, N 4): 0%
- OS (median survival) (FISH +, IHC +, P-AKT −, N 4): 18 (5-18) months
- TTP (FISH +, IHC +, P-AKT −, N 4): 9 (2-9) months
- 1-yr surv (FISH +, IHC −, EGFR Mut +, n 5): 60% (17-100)
- DCR (FISH +, IHC −, EGFR Mut +, n 5): 50%
- OR (response rate) (FISH +, IHC −, EGFR Mut +, n 5): 50%
- TTP (FISH +, IHC −, EGFR Mut +, n 5): 3 (2-9) months
- 1-yr surv (FISH +, IHC −, EGFR Mut −, n 8): 38% (7-66)
- DCR (FISH +, IHC −, EGFR Mut −, n 8): 39%
- OR (response rate) (FISH +, IHC −, EGFR Mut −, n 8): 0%
- OS (median survival) (FISH +, IHC −, EGFR Mut −, n 8): 9 (1-9) months
- TTP (FISH +, IHC −, EGFR Mut −, n 8): 2 (1-6) months
- 1-yr surv (FISH +, IHC −, P-AKT +, N 15): 53% (28-79)
- DCR (FISH +, IHC −, P-AKT +, N 15): 46%
- OR (response rate) (FISH +, IHC −, P-AKT +, N 15): 15%
- OS (median survival) (FISH +, IHC −, P-AKT +, N 15): 14 (3-19) months
- TTP (FISH +, IHC −, P-AKT +, N 15): 3 (2-6) months
- 1-yr surv (FISH +, IHC −, P-AKT −, N 2): 0% (0-69)
- DCR (FISH +, IHC −, P-AKT −, N 2): 0%
- OR (response rate) (FISH +, IHC −, P-AKT −, N 2): 0%
- OS (median survival) (FISH +, IHC −, P-AKT −, N 2): 9 (NA) months
- TTP (FISH +, IHC −, P-AKT −, N 2): 2 (NA) months
- 1-yr surv [4]: 42% (1470)
- DCR [4]: 44%
- OR (response rate) [4]: 22%
- OS (median survival) [4]: 11 (3-11) months
- TTP [4]: 4 (2-7) months
- 1-yr surv [5]: 49% (33-64)
- DCR [5]: 41%
- OR (response rate) [5]: 3%
- OS (median survival) [5]: 11 (8-18) months
- TTP [5]: 3 (2-5) months
- 1-yr surv (FISH −, IHC +, P-AKT +, N 35): 43% (26-59)
- DCR (FISH −, IHC +, P-AKT +, N 35): 47%
- OR (response rate) (FISH −, IHC +, P-AKT +, N 35): 13%
- OS (median survival) (FISH −, IHC +, P-AKT +, N 35): 11 (6-15) months
- TTP (FISH −, IHC +, P-AKT +, N 35): 4 (2-6) months
- 1-yr surv (FISH −, IHC +, P-AKT −, N 23): 47% (27-68)
- DCR (FISH −, IHC +, P-AKT −, N 23): 50%
- OR (response rate) (FISH −, IHC +, P-AKT −, N 23): 6%
- OS (median survival) (FISH −, IHC +, P-AKT −, N 23): 9 (7-9) months
- TTP (FISH −, IHC +, P-AKT −, N 23): 4 (2-7) months
- 1-yr surv (FISH −, IHC −, EGFR Mut +, n 6): 0% (0-30)
- DCR (FISH −, IHC −, EGFR Mut +, n 6): 0%
- OR (response rate) (FISH −, IHC −, EGFR Mut +, n 6): 0%
- OS (median survival) (FISH −, IHC −, EGFR Mut +, n 6): 3 (1-3) months
- TTP (FISH −, IHC −, EGFR Mut +, n 6): 2 (1-2) months
- 1-yr surv [6]: 37% (21-52)
- DCR [6]: 21%
- OR (response rate) [6]: 3%
- OS (median survival) [6]: 6 (4-12) months
- TTP [6]: 2 (2-3) months
- 1-yr surv (FISH −, IHC −, P-AKT +, N 32): 29% (13-44)
- DCR (FISH −, IHC −, P-AKT +, N 32): 18%
- OR (response rate) (FISH −, IHC −, P-AKT +, N 32): 4%
- OS (median survival) (FISH −, IHC −, P-AKT +, N 32): 6 (4-10) months
- TTP (FISH −, IHC −, P-AKT +, N 32): 2 (2-3) months
- 1-yr surv (FISH −, IHC −, P-AKT −, N 17): 29% (8-51)
- DCR (FISH −, IHC −, P-AKT −, N 17): 14%
- OR (response rate) (FISH −, IHC −, P-AKT −, N 17): 0%
- OS (median survival) (FISH −, IHC −, P-AKT −, N 17): 6 (4-12) months
- TTP (FISH −, IHC −, P-AKT −, N 17): 2 (2-5) months
- 1-yr (1-year survival) [7]: 45% (30-59)
- MS (mo) (median survival) [7]: 10 (5-14) mo
- RSP (response rate) [7]: 15%
- TTP (mo) (time to progression) [7]: 3 (2-5) mo
- 1-yr (1-year survival) [8]: 67% (71-100)
- RSP (response rate) [8]: 69%
- TTP (mo) (time to progression) [8]: 16 (3-20) mo
- 1-yr (1-year survival) [9]: 42% (31-53)
- DCR (disease control rate) [9]: 29%
- MS (mo) (median survival) [9]: 10 (6-13) mo
- RSP (response rate) [9]: 3%
- TTP (mo) (time to progression) [9]: 3 (2-3) mo
- 1-yr OS (KRAS Mutation+): 49% (33%-66%)
- DC (disease control) (KRAS Mutation+): 39%
- MS (95% CI) (KRAS Mutation+): 11 (6-23)
- OR (overall response) (KRAS Mutation+): 7%
- TTP, median (95% CI) (KRAS Mutation+): 3 (2-4)
- 1-yr OS (KRAS Mutation-): 50% (40%-60%)
- DC (disease control) (KRAS Mutation-): 40%
- MS (95% CI) (KRAS Mutation-): 12 (8-15)
- TTP, median (95% CI) (KRAS Mutation-): 3 (2-4)
- DC (disease control) (P-AKT+): 49%
- MS (95% CI) (P-AKT+): 13 (10-16)
- TTP, median (95% CI) (P-AKT+): 4 (3-5)
- 1-yr survival (P-AKT+ or EGFR IHC+): 43% (32-54)
- DCR (P-AKT+ or EGFR IHC+): 34%
- MS (P-AKT+ or EGFR IHC+): 8 (6-14) mo
- RSP (P-AKT+ or EGFR IHC+): 6%
- TTP (P-AKT+ or EGFR IHC+): 3 (2-3) mo
- 1-yr survival (P-AKT+/EGFR IHC+): 63% (51-74)
- MS (P-AKT+/EGFR IHC+): 16 (12-21) mo
- RSP (P-AKT+/EGFR IHC+): 30%
- TTP (P-AKT+/EGFR IHC+): 6 (4-10) mo
- DC (disease control) (P-AKT-): 33%
- MS (95% CI) (P-AKT-): 8 (6-14)
- OR (overall response) (P-AKT-): 2%
- TTP, median (95% CI) (P-AKT-): 3 (2-5)
- DCR (P-AKT-/EGFR IHC-): 21%
- MS (P-AKT-/EGFR IHC-): 6 (5-9) mo
- TTP (P-AKT-/EGFR IHC-): 2 (2-4) mo
- Disease Control Rate (both cohorts, total): 43%
- Median Survival (both cohorts, total): 11 (8-14)
- Median Time to Progression (both cohorts, total): 3 (3-4)
- One-YR Survival (both cohorts, total): 48% (41-55)
- Overall Response (both cohorts, total): 15%
- HR, survival, multivariable (performance status 2): 3.64
- Disease Control Rate [10]: 80%
- response rate [10]: 43%
- time to progression [10]: 12 months
- Median Survival (triple positive: EGFR FISH, EGFR IHC, P-AKT, not achieved yet): exceeding 20 months
- 1-year survival [11]: 100%
- Disease Control Rate [11]: 78%
- response rate [11]: 78%
- time to progression [11]: 20 months
- Median Survival (triple positive: EGFR FISH, IHC, mutation, not yet achieved): exceeding 20 months
